Measured values reported in patent US4880820A, “Guanine derivatives” (Merck & Co., Inc., priority 1988, dated 1989).
≈ marks a conversion by molar mass, not a printed value.

How the values were obtained:
[1] = tested on: Herpes simplex virus Type 1 (Schooler); assay: Method 1: inhibition of viral induced cytopathology in primary rabbit kidney cell cultures, HSV-1; type: cell-based; settings: Human alphaherpesvirus 1; HSV-1 (Schooler), primary rabbit kidney cells; total suppression of cytopathology in 50% of cultures; read-out: Minimum Effective Concentration
Procedure: (§1) Method 1: Confluent monolayers of primary rabbit kidney cell cultures were refed with maintenance medium containing serial dilutions of the test compounds and incubated overnight at 37° C. At each dilution, four cultures were challenged with approximately 10 TCID50 HSV-1, four cultures were challenged with approximately 10 TCID50 HSV-2,and two cultures were left as toxicity controls. Cultures were reincubated at 37° C. and observed for viral induced cytopathology at days 5 and 7. Minimum Effective Concentration (μg/ml) is defined as the concentration of antiviral compound required to totally suppress the development of viral cytopathology in 50% of the infected rabbit kidney cell cultures.

[2] = tested on: Herpes simplex virus Type 2 (Curtis); assay: Method 1: inhibition of viral induced cytopathology in primary rabbit kidney cell cultures, HSV-2; type: cell-based; settings: Human alphaherpesvirus 2; HSV-2 (Curtis), primary rabbit kidney cells; total suppression of cytopathology in 50% of cultures; read-out: Minimum Effective Concentration
Procedure: as §1

[3] = tested on: Herpes simplex virus Type 1 (Schooler); assay: Method 2: virus plaque reduction in MRC-5 cells, HSV-1; type: cell-based; settings: Human alphaherpesvirus 1, MRC5, 72 h; HSV-1 (Schooler), MRC-5 cells, 3 days; 50% reduction of plaque development; read-out: ED50 (the source's name)
Procedure: Method 2: Confluent monolayers of MRC-5 cells were incubated for one hour at 37° C. with 50-100 plaque forming units of the indicated virus. Following incubation, the cell monolayers were refed with maintenance medium containing 2% methyl cellulose and the chemical agent indicated. Duplicate cultures were incubated with each concentration of the chemical agent tested. Following further incubation for 3 days at 37° C., the monolayers were stained and the developed virus plaques were counted. The concentration (μg/ml) of each chemical agent which reduced plaque development by 50% (ED50) was determined.

[4] = tested on: Herpes simplex virus type 1 (HSV-1), strain Schooler; assay: Parenteral (subcutaneous) treatment of Herpes simplex virus type 1 infection in mice; type: in vivo, ICR/Ha mice; settings: s.c.
Procedure: (§2) Twenty gram ICR/Ha mice were injected intraperitoneally (ip) with 0.5 ml of a 10^-5 dilution of a stock preparation of Herpes simplex virus type 1 (HSV-1), strain Schooler. This virus challenge infected each animal with approximately 50 to 100 LD50. Starting immediately after virus infection and continuing twice daily for 4 days, each animal was injected subcutaneously in groups of 10 with: 125 μg, 31 μg, 8 μg or 2 μg of compounds A, B or C; or placebo (physiological saline, pH 11.5). All compounds were solubilized in physiological saline, pH 11.5. The mice were observed daily for 15 days at the same time each day and the day of death was recorded for each animal.
Statistical analyses [reference: Liddel, F.D.K., Evaluation of Survival in Challenge Experiments, Microbiol. Rev., 42, 237 (1978)]were performed on survival times transformed by the negative exponential transformation:
t=number of days an animal survived
T=duration of trial (15 days)
A continuity correction was used to account for daily observation:
Within each group, mice surviving through the trial period were assigned equally values of 0.9 and 1.0 to adjust for termination of the trial.
Average survival time per group was calculated from average corrected transformed survival times [fc (t)] as follows:
t avg=[T/log(0.1).[log(1-fc (t)]

[5] = tested on: Herpes simplex virus type 1 (HSV-1), strain Schooler; assay: Oral treatment of intraperitoneal HSV-1 infection of mice (Example 16); type: in vivo, ICR/Ha mice
Procedure: as §2, with “(i.p.)” for “(ip)”, “LD50 s.” for “LD50.”, “7” for “4”, “treated by oral gavage” for “injected subcutaneously”, “with: 250 μg, 125 μg, 8 μg or 2 μg of (S)-9-(2,3-dihydroxy-1-propoxymethyl)guanine; 500 μg,” for “with:”, “racemic 9-(2,3-dihydroxy-1-propoxymethyl)guanine;” for “compounds A, B or C;”
(§3) The statistical analyses were carried out as described in Example 15.

[6] = tested on: Herpes simplex virus type 1 (HSV-1), strain Schooler; assay: Oral treatment of intraperitoneal HSV-1 infection of mice (Example 17); type: in vivo, ICR/Ha mice; settings: for Percent Survival: at 15 days
Procedure: Twenty gram ICR/Ha mice were injected intraperitoneally (i.p.) with 0.5 ml of a 10^-5 dilution of a stock preparation of Herpes Simplex virus type 1 (HSV-1), strain Schooler. This virus challenge infected mice with approximately 50 to 100 LD50. Starting immediately after virus infection and continuing twice daily for 7 days, each animal was treated by oral gavage in groups of 10 with: 500 μg, 125 μg, 31 μg or 8 μg of (S)-9-(2,3-dihydroxy-1propoxymethyl)guanine; 500 μg, 125 μg, 31 μg or 8 μg of acyclovir or placebo (physiological saline, pH 11.5). All compounds were solubilized in physiological saline, pH 11.5.
as §3

[7] = tested on: Herpes simplex virus type 1 (HSV-1), strain Schooler; assay: Parenteral (subcutaneous) treatment of Herpes simplex virus type 1 infection in mice; type: in vivo, ICR/Ha mice; settings: tested not at the same time as A, B, C; for Percent Survival: at 15 days
[8] = 2 μg/dose twice daily for 4 days, 0.2 mg/kg/day, ^3 (all): not statistically different from placebo
[9] = 2 μg/dose twice daily for 4 days, 0.2 mg/kg/day, at 15 days
[10] = 8 μg/dose twice daily for 4 days, 0.8 mg/kg/day, ^3 (all): not statistically different from placebo
[11] = 8 μg/dose twice daily for 4 days, 0.8 mg/kg/day, at 15 days
[12] = 31 μg/dose twice daily for 4 days, 3.1 mg/kg/day, ^3 (all): not statistically different from placebo
[13] = 31 μg/dose twice daily for 4 days, 3.1 mg/kg/day, at 15 days
[14] = 125 μg/dose twice daily for 4 days, 12.5 mg/kg/day, ^3 (B, acyclovir): not statistically different from placebo
[15] = 125 μg/dose twice daily for 4 days, 12.5 mg/kg/day, at 15 days (acyclovir not at the same time)
[16] = 31 μg/dose twice daily for 7 days, 3.1 mg/kg/day, ^3 (all): not statistically different from placebo
[17] = 31 μg/dose twice daily for 7 days, 3.1 mg/kg/day, at 15 days (acyclovir not at the same time)
[18] = 125 μg/dose twice daily for 7 days, 12.5 mg/kg/day, ^3 (racemate, acyclovir): not statistically different from placebo
[19] = 125 μg/dose twice daily for 7 days, 12.5 mg/kg/day, at 15 days (acyclovir not at the same time)
[20] = 500 μg/dose twice daily for 7 days, 50 mg/kg/day (acyclovir not at the same time)
[21] = 500 μg/dose twice daily for 7 days, 50 mg/kg/day, at 15 days (acyclovir not at the same time)
[22] = 125 μg/dose twice daily for 7 days, 12.5 mg/kg/day
[23] = 500 μg/dose twice daily for 7 days, 50 mg/kg/day

Structure (SMILES)	minimal effective concentration [1]	minimal effective concentration [2]	EC50 [3]	Avg. Survival Time [4, 8]	Percent Survival [4, 9]	Avg. Survival Time [4, 10]	Percent Survival [4, 11]	Avg. Survival Time [4, 12]	Percent Survival [4, 13]	Avg. Survival Time [4, 14]	Percent Survival [4, 15]	Avg. Survival Time [5, 16]	Percent Survival [5, 17]	Avg. Survival Time [5, 18]	Percent Survival [5, 19]	Avg. Survival Time [5, 20]	Percent Survival [5, 21]	also measured
Nc1nc2c(ncn2COCC(O)CO)c(=O)[nH]1 (racemic) [C, Racemic 9-(2,3-dihydroxy-1-propoxymethyl)guanine]	3.1 to 6 µg/mL	6 to 12 µg/mL	1 µg/mL (≈ 3.92 µM)	6.7 days	10%	6.6 days	0%	7.2 days	0%	8.6 days	20%	7.6 days	0%	8.4 days	10%	10.7 days	20%	Avg. Survival Time ([5]; 2 μg/dose twice daily for 7 days, 0.2 mg/kg/day, ^3 (all): not statistically different from placebo): 6.9 days; Percent Survival ([5]; 2 μg/dose twice daily for 7 days, 0.2 mg/kg/day, at 15 days): 0%; Avg. Survival Time ([5]; 8 μg/dose twice daily for 7 days, 0.8 mg/kg/day, ^3 (all): not statistically different from placebo): 6.8 days; Percent Survival ([5]; 8 μg/dose twice daily for 7 days, 0.8 mg/kg/day, at 15 days): 0%; protection over placebo-treated animals, as measured by average survival time ([5]; 50 mg/kg/day): conferred significant protection over placebo-treated animals
Nc1nc2c(ncn2COCCO)c(=O)[nH]1 [Acyclovir, 9-(2-hydroxyethoxymethyl)guanine]										7.0 days	6%	6.3 days	0%	6.6 days	0%	8.2 days	20%	Percent Survival ([5]; 1000 μg/dose, 100 mg/kg/day, at 15 days, tested not at the same time): 60%; Avg. Survival Time ([5]; 1000 μg/dose, 100 mg/kg/day, tested not at the same time): 11.4 days; Avg. Survival Time ([6]; 8 μg/dose twice daily for 7 days, 0.8 mg/kg/day, ^b (all): not statistically different from placebo): 6.1 days; Percent Survival ([6]; 8 μg/dose twice daily for 7 days, 0.8 mg/kg/day): 0%; Avg. Survival Time ([6]; 31 μg/dose twice daily for 7 days, 3.1 mg/kg/day, ^b (all): not statistically different from placebo): 6.5 days; Percent Survival ([6]; 31 μg/dose twice daily for 7 days, 3.1 mg/kg/day): 0%; Avg. Survival Time [6, 22]: 7.6 days; Percent Survival [6, 22]: 10%; Avg. Survival Time [6, 23]: 8.7 days; Percent Survival [6, 23]: 20%; protection over placebo-treated animals, as measured by average survival time ([6]; 12.5 mg/kg/day): conferred significant protection over placebo-treated animals; protection over placebo-treated animals, as measured by average survival time ([6]; 50 mg/kg/day): conferred significant protection over placebo-treated animals; Percent Survival ([7]; 500 μg/dose, 50 mg/kg/day): 0%; Avg. Survival Time ([7]; 500 μg/dose, 50 mg/kg/day): 7.8 days; Percent Survival ([7]; 1000 μg/dose, 100 mg/kg/day): 10%; Avg. Survival Time ([7]; 1000 μg/dose, 100 mg/kg/day): 7.8 days
Nc1nc2c(ncn2COC[C@H](O)CO)c(=O)[nH]1 [B, (R)-9-(2,3-dihydroxy-1-propoxymethyl)guanine]	25 µg/mL	25 to 50 µg/mL	6.2 µg/mL (≈ 24.3 µM)	6.0 days	0%	6.3 days	0%	6.5 days	10%	7.5 days	10%							
